Several values for one entry are separate records, joined by “and”; a condition that tells them apart may be missing. Equal values may be shown once. Toxic doses and inconclusive results are not listed. The calls were made as follows: active = survival T/C of 150% or more; inactive = T/C below 125% in these data.
Tested on: BDF1 mice, L1210 Methyl-GAG-resistant leukemia, survival T/C
Assay: NCI In Vivo Anticancer Drug Screen. Data for tumor model L1210 Leukemia resistant to Methyl-GAG; NSC 32946 (subcutaneous) in B6D2F1 (BDF1) mice
Settings: endpoint: mean survival time, higher = longer survival
Description: The antitumor activity of compounds was measured in mice bearing transplantable tumors. Survival or tumor size were measured and the results are expressed as the measurement made in the treated group (T) divided by the measurement made in the vehicle treated control group (C). The tumor model used in this assay is L1210 Leukemia resistant to Methyl-GAG; NSC 32946 (subcutaneous) in B6D2F1 (BDF1) mice

[1] = dose: 15.0 mg/kg/injection, schedule: Q01DX Z (ip), vehicle: carboxymethylcellulose (CMC)
[2] = dose: 30.0 mg/kg/injection, schedule: Q01DX Z (ip), vehicle: carboxymethylcellulose (CMC)
[3] = dose: 60.0 mg/kg/injection, schedule: Q01DX Z (ip), vehicle: carboxymethylcellulose (CMC)
[4] = dose: 7.5 mg/kg/injection, schedule: Q01DX Z (ip), vehicle: carboxymethylcellulose (CMC)

Measured: T/C

CCC(=O)O[C@H]1CC[C@H]2[C@@H]3CCC4=CC(=O)CC[C@]4(C)[C@H]3CC[C@]12C
inactive: dose: 37.5 mg/kg/injection, schedule: Q01DX Z (sc), vehicle: steriod suspending solution 101 % of control | dose: 60.0 mg/kg/injection, schedule: Q01DX Z (sc), vehicle: steriod suspending solution 120 % of control | dose: 75.0 mg/kg/injection, schedule: Q01DX Z (sc), vehicle: steriod suspending solution 104 % of control | dose: 150.0 mg/kg/injection, schedule: Q01DX Z (sc), vehicle: steriod suspending solution 98 % of control | dose: 300.0 mg/kg/injection, schedule: Q01DX Z (sc), vehicle: steriod suspending solution 98 % of control and 119 % of control | dose: 1500.0 mg/kg/injection, schedule: Q01DX Z (sc), vehicle: steriod suspending solution 96 % of control

COS(C)(=O)=O
inactive: dose: 12.5 mg/kg/injection, schedule: Q01DX Z (ip), vehicle: water 101 % of control | dose: 25.0 mg/kg/injection, schedule: Q01DX Z (ip), vehicle: water 98 % of control and 99 % of control | dose: 50.0 mg/kg/injection, schedule: Q01DX Z (ip), vehicle: water 103 % of control and 112 % of control

Cc1cc(N(CCCl)CCCl)ccc1N=Nc1ccccc1C(=O)O
inactive: [1] 96 % of control | [2] 99 % of control | [3] 96 % of control

C[C@H]1C(=O)O[C@@H]2CCN3CC=C(COC(=O)[C@](C)(O)[C@@]1(C)O)[C@H]23
inactive: dose: 1.88 mg/kg/injection, schedule: Q01DX Z (ip), vehicle: carboxymethylcellulose (CMC) 94 % of control | dose: 3.75 mg/kg/injection, schedule: Q01DX Z (ip), vehicle: carboxymethylcellulose (CMC) 96 % of control | [4] 92 % of control | [1] 92 % of control and 99 % of control | [2] 105 % of control | [3] 106 % of control | dose: 120.0 mg/kg/injection, schedule: Q01DX Z (ip), vehicle: carboxymethylcellulose (CMC) 113 % of control

CC/C(=C(/CC)c1ccc(O)cc1)c1ccc(O)cc1
inactive: dose: 31.25 mg/kg/injection, schedule: Q01DX Z (sc), vehicle: steriod suspending solution 97 % of control | dose: 62.5 mg/kg/injection, schedule: Q01DX Z (sc), vehicle: steriod suspending solution 110 % of control | dose: 125.0 mg/kg/injection, schedule: Q01DX Z (sc), vehicle: steriod suspending solution 100 % of control | dose: 250.0 mg/kg/injection, schedule: Q01DX Z (sc), vehicle: steriod suspending solution 87 % of control

C=CC(CN1CC1)OC(C)=O (stereo not drawn)
inactive: dose: 0.95 mg/kg/injection, schedule: Q01DX Z (ip), vehicle: carboxymethylcellulose (CMC) 100 % of control | dose: 1.9 mg/kg/injection, schedule: Q01DX Z (ip), vehicle: carboxymethylcellulose (CMC) 118 % of control | dose: 3.8 mg/kg/injection, schedule: Q01DX Z (ip), vehicle: carboxymethylcellulose (CMC) 118 % of control | [4] 120 % of control

O=c1[nH]c(=O)n(C2CC(O)C(CO)O2)cc1I (stereo not drawn)
inactive: dose: 62.5 mg/kg/injection, schedule: Q01DX Z (ip), vehicle: carboxymethylcellulose (CMC) 118 % of control | dose: 125.0 mg/kg/injection, schedule: Q01DX Z (ip), vehicle: carboxymethylcellulose (CMC) 112 % of control | dose: 500.0 mg/kg/injection, schedule: Q01DX Z (ip), vehicle: carboxymethylcellulose (CMC) 117 % of control

N#Cc1cn(C2OC(CO)C(O)C2O)c2ncnc(N)c12 (stereo not drawn)
inactive: dose: 63.0 micrograms/kg/injection, schedule: Q01DX Z (ip), vehicle: carboxymethylcellulose (CMC) 96 % of control | dose: 125.0 micrograms/kg/injection, schedule: Q01DX Z (ip), vehicle: carboxymethylcellulose (CMC) 102 % of control | dose: 250.0 micrograms/kg/injection, schedule: Q01DX Z (ip), vehicle: carboxymethylcellulose (CMC) 115 % of control | dose: 500.0 micrograms/kg/injection, schedule: Q01DX Z (ip), vehicle: carboxymethylcellulose (CMC) 93 % of control

O=C1CCC(N2C(=O)c3ccccc3C2=O)C(=O)N1 (stereo not drawn)
inactive: dose: 18.75 mg/kg/injection, schedule: Q01DX Z (ip), vehicle: carboxymethylcellulose (CMC) 96 % of control | dose: 37.5 mg/kg/injection, schedule: Q01DX Z (ip), vehicle: carboxymethylcellulose (CMC) 102 % of control | dose: 75.0 mg/kg/injection, schedule: Q01DX Z (ip), vehicle: carboxymethylcellulose (CMC) 102 % of control | dose: 150.0 mg/kg/injection, schedule: Q01DX Z (ip), vehicle: carboxymethylcellulose (CMC) 94 % of control

— PubChem BioAssay AID306 (DTP/NCI, 2004)
